Data from US20090298902A1, “PESTICIDE COMPOSITIONS FOR COMBATING ARTHROPOD PESTS, SNAILS AND NEMATODES” (priority 2006, published 2009).

Tested on: workers of the eastern subterranean termite, Reticulitermes flavipes
Assay: Test example 4: soil incorporation bioassay with compound P5a formulations
Assay type: in vivo
Settings: 24 h, 1 DAT, read-out: Mean cumulative % mortality at days after treatment (DAT)
Experimental: Bioassays were conducted in 60×15 mm Petri dishes with a 1% agar layer for moisture and 15 termite workers per dish. Granular formulations were incorporated into the Princeton sandy loam soil by hand shaking and mixing with use of a commercial jar roller. After incorporation, water was added to field capacity, and the soil was rolled again. The soil was allowed to sit at field capacity overnight. The soil was then air dried for 24 hours prior to introduction into the test dishes. Conventional suspension concentrate of fipronil was used as a standard, and untreated soil used as a control. Test dishes were maintained at approximately 26° C. and 85% RH. Dishes were observed daily for 13 days for mortality. The concentration of active ingredient was 0.0004875% (w/w) in trench.
Test example 4 was performed similar to test example 1, using formulations containing compound P5a. Comparison of a superabsorber formulation of compound P5 to a DC formulation of compound P5 for bioactivity against workers of the eastern subterranean termite, Reticulitermes flavipes, via soil (Princeton sandy loam) incorporation;

## CCN/C(=N\Nc1c(Cl)cc(C(F)(F)F)cc1Cl)C1(C)CC1(Cl)Cl (centres unmarked) [Compound P5a]
Rate 10 ppm
  mortality at 10 ppm: 100%
Rate 100 ppm
  mortality at 100 ppm: 100%
